Source: US12195482B1 (Arcus Biosciences, Inc., priority 2022, dated 2025)

What was measured:
p-AXL = target: T1, p-AXL (Homo sapiens, UniProt P30530); assay: Axl phosphorylation inhibition ELISA in HEK293T cells transfected with NanoLuc-tagged AXL; format: cell-based; conditions: 1 h compound incubation, media (OptiMEM)
T1 construct: expressed in transfected cells; host or cells: HEK293T
T1 sequence (P30530 26-894): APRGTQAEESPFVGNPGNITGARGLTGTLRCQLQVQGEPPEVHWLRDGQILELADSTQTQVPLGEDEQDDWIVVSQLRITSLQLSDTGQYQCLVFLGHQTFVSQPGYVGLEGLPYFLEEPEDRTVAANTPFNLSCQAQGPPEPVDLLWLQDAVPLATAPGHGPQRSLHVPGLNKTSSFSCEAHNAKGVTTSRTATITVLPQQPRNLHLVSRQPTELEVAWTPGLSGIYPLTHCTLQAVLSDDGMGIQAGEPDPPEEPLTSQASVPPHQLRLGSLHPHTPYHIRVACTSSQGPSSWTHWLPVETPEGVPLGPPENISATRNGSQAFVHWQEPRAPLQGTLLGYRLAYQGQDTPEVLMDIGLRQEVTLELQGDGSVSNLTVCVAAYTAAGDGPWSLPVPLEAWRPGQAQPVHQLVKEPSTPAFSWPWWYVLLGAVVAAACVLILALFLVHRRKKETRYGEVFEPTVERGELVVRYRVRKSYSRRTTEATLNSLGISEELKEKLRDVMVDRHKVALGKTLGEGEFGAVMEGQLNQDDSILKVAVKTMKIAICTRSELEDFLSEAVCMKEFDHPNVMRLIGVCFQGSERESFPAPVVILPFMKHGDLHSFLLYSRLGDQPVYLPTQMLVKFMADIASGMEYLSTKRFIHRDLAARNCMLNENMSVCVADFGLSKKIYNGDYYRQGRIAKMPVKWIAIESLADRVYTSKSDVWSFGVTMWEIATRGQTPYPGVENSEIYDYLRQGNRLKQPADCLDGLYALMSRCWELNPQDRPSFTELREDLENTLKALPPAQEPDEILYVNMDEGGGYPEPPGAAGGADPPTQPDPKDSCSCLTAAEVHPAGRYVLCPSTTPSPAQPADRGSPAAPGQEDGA
Procedure: [formula] Measurement of Axl Phosphorylation Inhibition
The dose-response assays were performed in S-Bio PrimeSurface® 3D culture: Ultra-low Attachment Plates: 384 well, U bottom (#MS-9384UZ) containing 400 nL of 22 serial 2-fold compound dilutions using Bravo and Echo. ELISA assay was performed on Pierce™ streptavidin coated high capacity 384-well white plates (Thermofisher Cat #15505). The plates were coated overnight at 4° C. with 50 μl/well of biotinlyated phospho-tyrosine mouse mAb (Cell Signaling Technology, 9417s).
HEK293T cells were grown in DMEM containing 10% FBS, 1% Pen/Strep, 1% G-Max. A day before the assay, cells were transiently transfected with 6.8 μg of NanoLuc-tagged AXL plasmid DNA and 8 μg of carrier DNA using FuGENE® HD Transfection Reagent (Promega) according to manufacturer's instructions. On the day of the assay, transfected cells were harvested and resuspended in OptiMEM. 70,000 cells/well were added to the compounds containing assay plates. After a gentle mix and a short spin, the plates were incubated at 37° C. After 1 h, the cells were lysed followed by a brief centrifugation and 30 min of shaking at 300 rpm. Meanwhile, the antibody coated plates were brought to room temperature and then were washed ten times in PBS with 0.05% Tween 20 (ELISA-wash buffer). 50 μl/well of cell lysate was transferred to the ELISA plates and shaken for 2 hours. After washing again with the ELISA wash buffer, the samples were diluted with 25 μl of PBS. The captured NanoLuc tagged p-AXL was detected using Nano-Glo® Luciferase Assay System (Promega) and manufacturer's instruction. The luminescence signal was measured using Envision plate reader. IC50 values were determined by fitting the data to a standard 4-parameter logistic equation.

Axl = target: T2, Axl (Homo sapiens, UniProt P30530); assay: Biochemical potency, HTRF KinEASE-TK kinase assay; parameters: purchased Invitrogen; conditions: 5 nM AXL, 700 μM ATP
T2 sequence (P30530 26-894): T1 sequence (P30530 26-894)
Procedure: Measurement of Biochemical Compound Potency of Axl Inhibitors
Purified recombinant human AXL, TYRO3 and MER proteins were purchased from Invitrogen™. 10 nM AXL, 2 nM TYRO3 or MER were incubated with varying concentrations of compounds in 50 mM HEPES, pH 7.4, 10 mM MgCl2, 0.01% BSA, 1 mM DTT and 2% DMSO in a total volume of 20 μl in a 384-well microplate (Corning™ #3640) at RT for 1 h. The AXL, TYRO3 and MER enzymatic reaction was initiated by transferring 10 μl of enzyme and compound mixture into 10 μl of 1.6 μM TK Substrate-biotin (HTRF® KinEASE-TK kit, Cisbio) and 1400 μM ATP pre-incubated in 50 mM HEPES, pH 7.4, 10 mM MgCl2, 0.01% BSA, 1 mM DTT in a 384-well microplate (Corning™ #3640) at RT, giving the final reaction conditions: 5 nM AXL, 1 nM TYRO3 or MER, 800 nM TK Substrate-biotin and 700 μM ATP in 50 mM HEPES, pH 7.4, 10 mM MgCl2, 0.01% BSA, 1 mM DTT and 1% DMSO with varying concentrations of compounds. Following 2 h incubation at RT, the AXL, TYRO3 and MER enzymatic reaction was stopped by transfer of 10 μl of reaction into 10 μl of detection mix (400 nM Streptavidin-XL665, 200-fold dilution TK Antibody-Cryptate and detection buffer, HTRF® KinEASE-TK kit, Cisbio) in a white 384-well microplate (Perkin Elmer, OptiPlate 384). After 1 h incubation at RT, the plate was put into a plate reader (Evision) to read at 665/620 nm (acceptor/donor) for HTRF. The value of the DMSO blank (MIN inhibition=100% activity) was used as a negative control. The positive control was established by adding 5 μl of enzyme and DMSO mixture into 10 μl of detection mix followed by addition of 5 μl of TK Substrate-biotin and ATP mixture (MAX inhibition=0% activity). To calculate the percent activity, Equation 1 was used. Ratio665/620 is the value at a given compound concentration: […]

SMILES | IC50 (p-AXL) [nM] | IC50 (Axl) [nM]
Cc1cnc(C)c(-c2ccc(-c3c[nH]c4ncc(-c5ccc6c(c5)CC[C@@](C)(N5CCC[C@H]5C)CC6)cc34)nc2)n1 [Example 68, 2,5-Dimethyl-3-(6-{5-[(7S)-7-methyl-7-[(2R)-2-methylpyrrolidin-1-yl]-6,7,8,9-tetrahydro-5H-benzo[7]annulen-2-yl]-1H-pyrrolo[2,3-b]pyridin-3-yl}pyridin-3-yl)pyrazine] | < 100 | < 100
Cc1cccnc1-c1nnc(-c2n[nH]c3ncc(-c4ccc5c(c4)CC[C@@H](N4C6COCC4C6)CC5)cc23)o1 [Example 25, 6-[(7S)-2-{3-[5-(3-Methylpyridin-2-yl)-1,3,4-oxadiazol-2-yl]-1H-pyrazolo[3,4-b]pyridin-5-yl}-6,7,8,9-tetrahydro-5H-benzo[7]annulen-7-yl]-3-oxa-6-azabicyclo[3.1.1]heptane] | < 100 | < 100
Cn1ncnc1-c1ccc(-c2n[nH]c3ncc(-c4ccc5c(c4)CC[C@@H](N[C@H]4CCCOC4)CC5)cc23)cc1 [Example 134] | < 100 | < 100
C[C@@H]1CCCN1[C@@]1(C)CCc2ccc(-c3cnc4[nH]nc(-c5ccc(-c6ncccc6C#N)cc5)c4c3)cc2CC1 [Example 66, 2-(4-{5-[(7S)-7-Methyl-7-[(2R)-2-methylpyrrolidin-1-yl]-6,7,8,9-tetrahydro-5H-benzo[7]annulen-2-yl]-1H-pyrazolo[3,4-b]pyridin-3-yl}phenyl)pyridine-3-carbonitrile] | < 100 | < 100
Cc1cccnc1-c1ccc(-c2c[nH]c3nnc(-c4ccc5c(c4)CC[C@@H](N4C6COCC4C6)CC5)cc23)cc1 [Example 36, 6-[(7S)-3-[5-[4-(3-Methylpyridin-2-yl)phenyl]-7H-pyrrolo[2,3-c]pyridazin-3-yl]-6,7,8,9-tetrahydro-5H-benzo[7]annulen-7-yl]-3-oxa-6-azabicyclo[3.1.1]heptane] | > 1000 | < 100
Cc1cc(F)cnc1-c1ccc(-c2c[nH]c3ncc(-c4ccc5c(c4)CC[C@@](C)(N4CCC[C@H]4C)CC5)cc23)cc1 [Example 34, 3-[4-(5-Fluoro-3-methylpyridin-2-yl)phenyl]-5-[(7S)-7-methyl-7-[(2R)-2-methylpyrrolidin-1-yl]-5,6,8,9-tetrahydrobenzo[7]annulen-3-yl]-1H-pyrrolo[2,3-b]pyridine] | < 100 | < 100
c1cnc(-c2ccc(-c3n[nH]c4ncc(-c5ccc6c(c5)CC[C@@H](N5C7COCC5C7)CC6)cc34)cc2)c(C2CCOCC2)c1 [Example 149, 6-[(7S)-2-(3-{4-[3-(Oxan-4-yl)pyridin-2-yl]phenyl}-1H-pyrazolo[3,4-b]pyridin-5-yl)-6,7,8,9-tetrahydro-5H-benzo[7]annulen-7-yl]-3-oxa-6-azabicyclo[3.1.1]heptane] | < 100 | < 100
Cc1ccc(C#N)c(-c2ccc(-c3c[nH]c4ncc(-c5ccc6c(c5)CC[C@@H](N5C7COCC5C7)CC6)cc34)cc2)n1 [Example 72, 6-Methyl-2-(4-{5-[(7S)-7-{3-oxa-6-azabicyclo[3.1.1]heptan-6-yl}-6,7,8,9-tetrahydro-5H-benzo[7]annulen-2-yl]-1H-pyrrolo[2,3-b]pyridin-3-yl}phenyl)pyridine-3-carbonitrile] | 100 to 1000 | < 100
Cc1ncccc1-c1ccc(-c2c[nH]c3ncc(-c4ccc5c(c4)CC[C@@H](N4C6COCC4C6)CC5)cc23)cc1 [Example 74, 6-[(7S)-2-{3-[4-(2-Methylpyridin-3-yl)phenyl]-1H-pyrrolo[2,3-b]pyridin-5-yl}-6,7,8,9-tetrahydro-5H-benzo[7]annulen-7-yl]-3-oxa-6-azabicyclo[3.1.1]heptane] | 100 to 1000 | < 100
Cc1ccc(C)c(-c2ccc(-c3n[nH]c4ncc(-c5ccc6c(c5)CC[C@@H](N5C7COC[C@H]5C7)CC6)cc34)c(F)c2)n1 [Example 143, (1R)-6-[(7S)-2-{3-[4-(3,6-Dimethylpyridin-2-yl)-2-fluorophenyl]-1H-pyrazolo[3,4-b]pyridin-5-yl}-6,7,8,9-tetrahydro-5H-benzo[7]annulen-7-yl]-3-oxa-6-azabicyclo[3.1.1]heptane] | 100 to 1000 | < 100
Cc1cccnc1-c1ccc(-c2n[nH]c3ncc(-c4ccc5c(c4)CC[C@@H](N[C@H]4CCCOC4)CC5)cc23)nc1 [Example 106, (3S)—N-[(7S)-2-(3-{3-Methyl-[2,3′-bipyridin]-6′-yl}-1H-pyrazolo[3,4-b]pyridin-5-yl)-6,7,8,9-tetrahydro-5H-benzo[7]annulen-7-yl]oxan-3-amine] | < 100 | < 100
Cc1cnc(C)c(-c2ccc(-c3n[nH]c4ncc(-c5ccc6c(c5)CC[C@@](C)(N5CCC[C@H]5C)CC6)cc34)nc2)n1 [Example 61, 2,5-Dimethyl-3-(6-{5-[(7S)-7-methyl-7-[(2R)-2-methylpyrrolidin-1-yl]-6,7,8,9-tetrahydro-5H-benzo[7]annulen-2-yl]-1H-pyrazolo[3,4-b]pyridin-3-yl}pyridin-3-yl)pyrazine] | < 100 | < 100
Cc1cccnc1-n1cc(-c2c[nH]c3ncc(-c4ccc5c(c4)CC[C@@H](N4C6COCC4C6)CC5)cc23)cn1 [Example 27, 6-[(7S)-2-{3-[1-(3-Methylpyridin-2-yl)-1H-pyrazol-4-yl]-1H-pyrrolo[2,3-b]pyridin-5-yl}-6,7,8,9-tetrahydro-5H-benzo[7]annulen-7-yl]-3-oxa-6-azabicyclo[3.1.1]heptane] | < 100 | < 100
COCCN1CCc2ccc(-c3cnc4[nH]nc(-c5ccc(-c6ncccc6C)cc5)c4c3)cc2CC1 [Example 15, 3-(2-Methoxyethyl)-7-{3-[4-(3-methylpyridin-2-yl)phenyl]-1H-pyrazolo[3,4-b]pyridin-5-yl}-2,3,4,5-tetrahydro-1H-3-benzazepine] | 100 to 1000 | < 100
